Reference: patent US4649143A, “Methods and compositions for treating protozoal infections with a novel antibiotic” (priority 1984, dated 1987)
In brackets after ≈: the same amount, converted by molar mass.

Assays:
Micrococcus luteus = assay: In vitro antimicrobial spectrum, agar plate dilution MIC; format: cell-based; conditions: PC 1001, Mueller-Hinton agar, 18 hours, 35° C.
Experimental: (§1) The in vitro antimicrobial spectrum of LL-D42067β was determined by the agar plate dilution method with Mueller-Hinton agar and an inoculum of each test organism of approximately 10^4 colony forming units delivered by the Steers replicating device. The minimal inhibitory concentration (MIC) in mcg/ml was defined as the lowest concentration of LL-D42067β that inhibited visible growth after 18 hours incubation at 35° C.

Enterococcus = assay: as above; format: cell-based; conditions: 18 h, 35° C.
Experimental: as §1

Streptococcus sanguis = assay: as above; format: cell-based; conditions: G9B (a), Mueller-Hinton agar, 18 hours, 35° C.
Experimental: as §1

Streptococcus faecalis = assay: as above; format: cell-based; conditions: Enterococcus faecalis, ATCC29212; ATCC 29212; Mueller-Hinton agar, 18 hours, 35° C.
Experimental: as §1

Staphylococcus aureus = assay: as above; format: cell-based; conditions: 18 h, 35° C.
Experimental: as §1

[1] = tested on: Staphylococcus epidermidis; assay: as above; format: cell-based; conditions: CMC 83-56, Mueller-Hinton agar, 18 hours, 35° C.
Experimental: as §1

Bacillus cereus = assay: as above; format: cell-based; conditions: LL No. 4, Mueller-Hinton agar, 18 hours, 35° C.
Experimental: as §1

Bacillus subtilis = assay: as above; format: cell-based; conditions: ATCC6633, ATCC 6633, Mueller-Hinton agar, 18 hours, 35° C.
Experimental: as §1

Eimeria tenella = assay: Anticoccidial evaluation in infected chicks, intestinal lesions; format: in vivo, Eimeria tenella; chicks; conditions: for Percent Chicks with Reduced Lesions E. tenella: 7 days after inoculation
Experimental: (§2) The poultry diet employed in the test is as follows: The vitamin-amino acid premix in the above feed composition is prepared from the following formulation. The expressions of quantity relate to units per kilogram of the finished feed composition. A mixed inoculum of 5000 sporulated oocysts of Eimeria acervulina and a sufficient number of oocysts of Eimeria tenella to produce 60% to 75% mortality in untreated controls were given to one-day-old chicks, by direct inoculation into the crops of all chicks. The chicks were given free access to feed and water during the entire test period. Two days before inoculation, medicated feed with several levels of drug was presented to the various groups of chicks. Seven days after inoculation, the tests were terminated and the chicks were weighed, necropsied, and their intestinal tracts examined for lesions.

Solubility in water = format: physicochemical; conditions: compound and its acceptable salts
gram-positive bacteria = assay: In vitro antimicrobial spectrum, summary; format: cell-based
Experimental: as §1

yeasts = assay: In vitro antimicrobial spectrum, summary; format: cell-based
Experimental: as §1

Eimeria acervulina = assay: Anticoccidial evaluation in infected chicks, intestinal lesions; format: in vivo, Eimeria acervulina; chicks; conditions: 0.5 ppm to 5.0 ppm in diet
Experimental: as §2

[2] = tested on: Eimeria acervulina and Eimeria tenella (mixed inoculum); assay: Anticoccidial evaluation in infected chicks, survival; format: in vivo, Eimeria tenella; chicks; conditions: for Percent Survival: chicks, 7 days after inoculation
Experimental: as §2

COc1c2c(c(O)c3c(=O)c4c(oc13)[C@@H](O)CC[C@@H]4O)-c1c3c(c4cc(C)[nH]c(=O)c4c1O)OCO[C@H]3C2 (relative stereo) [LL-D42067β] showed an MIC (Micrococcus luteus) of no more than 0.06 µg/mL, an MIC (Enterococcus; OSU 75-1, Mueller-Hinton agar) of 1 µg/mL (≈ 1.92 µM) and an MIC (Enterococcus; SM 77-15, Mueller-Hinton agar) of 2 µg/mL (≈ 3.84 µM). It also gave an MIC (Streptococcus sanguis) of 0.5 µg/mL (≈ 0.959 µM), an MIC (Streptococcus faecalis) of 1 µg/mL (≈ 1.92 µM) and an MIC (Staphylococcus aureus; LL No. 14, Mueller-Hinton agar) of 0.5 µg/mL (≈ 0.959 µM). It also gave an MIC (Staphylococcus aureus; LL No. 27, Mueller-Hinton agar) of no more than 0.06 µg/mL, an MIC (Staphylococcus aureus; Smith, Mueller-Hinton agar) of 0.5 µg/mL (≈ 0.959 µM) and an MIC [1] of 0.5 µg/mL (≈ 0.959 µM). For the same molecule, the MIC (Bacillus cereus) was no more than 0.06 µg/mL, the MIC (Bacillus subtilis) was 4 µg/mL (≈ 7.67 µM) and the “suppression of lesions due to E. tenella” value (Eimeria tenella; 0.5 ppm to 5.0 ppm in diet) was “significant suppression of lesions”. The “Percent Chicks with Reduced Lesions E. tenella” value (Eimeria tenella; 0.5 ppm in diet) was 0%, the “Percent Chicks with Reduced Lesions E. tenella” value (Eimeria tenella; 0.75 ppm in diet) was 40% and the “Percent Chicks with Reduced Lesions E. tenella” value (Eimeria tenella; 1.00 ppm in diet) was 80%. For the same molecule, the “Percent Chicks with Reduced Lesions E. tenella” value (Eimeria tenella; 2.5 ppm in diet) was 100%, the “Percent Chicks with Reduced Lesions E. tenella” value (Eimeria tenella; 5.0 ppm in diet) was 100% and the solubility in water (Solubility in water) was “relatively insoluble in water”. The “activity versus gram-positive bacteria” value (gram-positive bacteria) was “active”, the activity against yeasts (yeasts) was “moderately active” and the “suppression of lesions due to E. acervulina” value (Eimeria acervulina) was “significant suppression of lesions”. The “survival of infected chicks” value ([2]; 0.5 ppm to 5.0 ppm in diet) was “improved survival”, the “Percent Survival” value ([2]; 0.5 ppm in diet) was 40% and the “Percent Survival” value ([2]; 0.75 ppm in diet) was 60%. The “Percent Survival” value ([2]; 1.00 ppm in diet) was 80%, the “Percent Survival” value ([2]; 2.5 ppm in diet) was 100% and the “Percent Survival” value ([2]; 5.0 ppm in diet) was 80%.
